In brackets after ≈: the same amount, converted by molar mass. Like-named read-outs stand apart in the source and are kept apart here.
Assays:
Assay type in all cases: cell-based
[1] = test system: A-549 (Lung) human cancer cell line; assay: In vitro anti-tumor screen, cancer cell antiproliferative assay, A-549
Protocol: (§1) The following tables summarize the activity of all the synthetic derivatives. […] Lower values represent higher activity.
(§2) ^9 Cancer cell antiproliferative assays were performed by Dr. Takashi Owa, a postdoctoral fellow in the Stuart L. Schreiber research group.

[2] = test system: HCT116 (Colon) human cancer cell line; assay: In vitro anti-tumor screen, cancer cell antiproliferative assay, HCT116
Protocol: as §1, §2

[3] = test system: A375 (Melanoma) human cancer cell line; assay: In vitro anti-tumor screen, cancer cell antiproliferative assay, A375; details: for IC50: Homo sapiens
Protocol: as §1, §2

[4] = test system: PC-3 (Prostate) human cancer cell line; assay: In vitro anti-tumor screen, cancer cell antiproliferative assay, PC-3; details: for IC50: Homo sapiens
Protocol: as §1, §2

[5] = A549, Table 8, additional biological data, first value of cell, read-out: IC50 (ng/mL) Lung
[6] = HCT-116, Table 8, additional biological data, second value of cell, read-out: IC50 (ng/mL) Colon
[7] = A-375, Table 8, additional biological data, third value of cell, read-out: IC50 (ng/mL) Melan.
[8] = Table 8, additional biological data, fourth value of cell, read-out: IC50 (ng/mL) Prost.
[9] = Table 5, B-ring substitution at X1, lung, >100 ng/mL considered inactive, read-out: IC50 A-549
[10] = HCT-116, Table 5, B-ring substitution at X1, colon, >100 ng/mL considered inactive, read-out: IC50 HCT-116
[11] = A-375, Table 5, B-ring substitution at X1, melanoma, >100 ng/mL considered inactive, read-out: IC50 A375
[12] = Table 5, B-ring substitution at X1, prostate, >100 ng/mL considered inactive, read-out: IC50 PC-3
[13] = A549, Table 6, A-ring substitution at X2, lung, read-out: IC50 A-549
[14] = HCT-116, Table 6, A-ring substitution at X2, colon, read-out: IC50 HCT 116
[15] = A-375, Table 6, A-ring substitution at X2, melanoma, read-out: IC50 A375
[16] = Table 6, A-ring substitution at X2, prostate, read-out: IC50 PC-3

SMILES | IC50 [1, 5] | IC50 [2, 6] | IC50 [3, 7] | IC50 [4, 8] | IC50 [1, 9] | IC50 [2, 10] | IC50 [3, 11] | IC50 [4, 12] | further results
COc1c(C)c(Br)c2c(c1O)[C@@H]1[C@@H]3Cc4c(OC(C)=O)c(C)c5c(c4[C@H](CN4C(=O)c6ccccc6C4=O)N3[C@@H](C#N)[C@H](C2)N1C)OCO5 | 4.7 ng/mL (≈ 6.44 nM) | 1.3 ng/mL (≈ 1.78 nM) | 0.47 ng/mL (≈ 0.644 nM) | 2 ng/mL (≈ 2.74 nM) | – | – | – | – | –
COc1c(C)cc2c(c1O)[C@@H]1[C@@H]3CC4=C(C(=O)C(O)=C(C)C4=O)[C@H](CN4C(=O)c5ccccc5C4=O)N3[C@@H](C#N)[C@H](C2)N1C | 48 ng/mL (≈ 80.7 nM) | 13 ng/mL (≈ 21.9 nM) | 2.1 ng/mL (≈ 3.53 nM) | 9 ng/mL (≈ 15.1 nM) | – | – | – | – | –
COc1c(C)cc2c(c1O)[C@@H]1[C@@H]3Cc4c(OC(C)=O)c(C)c5c(c4[C@H](COC(=O)Nc4ccccc4)N3[C@@H](C#N)[C@H](C2)N1C)OCO5 [Compound 22] | – | – | – | – | 4.5 ng/mL (≈ 7.02 nM) | 2.3 ng/mL (≈ 3.59 nM) | 1.9 ng/mL (≈ 2.97 nM) | 2.6 ng/mL (≈ 4.06 nM) | –
COc1c(C)cc2c(c1O)[C@@H]1[C@@H]3Cc4c(OC(C)=O)c(C)c5c(c4[C@H](CN4Cc6ccccc6C4=O)N3[C@@H](C#N)[C@H](C2)N1C)OCO5 [Compound 27] | – | – | – | – | 7.2 ng/mL (≈ 11.3 nM) | 2.2 ng/mL (≈ 3.46 nM) | 0.71 ng/mL (≈ 1.12 nM) | 1.7 ng/mL (≈ 2.67 nM) | –
COc1c(C)cc2c(c1O)[C@@H]1[C@@H]3Cc4c(OS(C)(=O)=O)c(C)c5c(c4[C@H](CN4C(=O)c6ccccc6C4=O)N3[C@@H](C#N)[C@H](C2)N1C)OCO5 [Compound 44] | – | – | – | – | – | – | – | – | IC50 ([1]; A549, read-out: IC50 A-549): 1.2 ng/mL (≈ 1.75 nM); IC50 ([2]; HCT-116, read-out: IC50 HCT 116): 0.4 ng/mL (≈ 0.582 nM); IC50 ([3]; A-375, read-out: IC50 A375): 0.2 ng/mL (≈ 0.291 nM); IC50 ([4]; read-out: IC50 PC-3): 0.59 ng/mL (≈ 0.859 nM)
COc1c(C)cc2c(c1O)[C@@H]1[C@@H]3Cc4c(OC(C)=O)c(C)c5c(c4[C@H](CN4C(=O)c6ccccc6C4=O)N3[C@@H](C#N)[C@H](C2)N1C)OCO5 [Compound 7] | – | – | – | – | 0.62 ng/mL (≈ 0.953 nM) | 0.25 ng/mL (≈ 0.384 nM) | 0.11 ng/mL (≈ 0.169 nM) | 0.36 ng/mL (≈ 0.553 nM) | IC50 [1, 13]: 0.62 ng/mL (≈ 0.953 nM); IC50 [2, 14]: 0.25 ng/mL (≈ 0.384 nM); IC50 A375 ([3]; Table 6, A-ring substitution at X2, melanoma): 0.11 ng/mL (≈ 0.169 nM); IC50 PC-3 ([4]; Table 6, A-ring substitution at X2, prostate): 0.36 ng/mL (≈ 0.553 nM)
COc1c(C)cc2c(c1O)[C@@H]1[C@@H]3Cc4c(OC(C)=O)c(C)c5c(c4[C@H](CN4C(=O)c6ccc(N)cc6C4=O)N3[C@@H](C#N)[C@H](C2)N1C)OCO5 [Compound 20] | – | – | – | – | 14 ng/mL (≈ 21 nM) | 2.1 ng/mL (≈ 3.15 nM) | 0.79 ng/mL (≈ 1.19 nM) | 2 ng/mL (≈ 3 nM) | –
COc1c(C)cc2c(c1O)[C@@H]1[C@@H]3Cc4c(O)c(C)c5c(c4[C@H](CN4C(=O)c6ccccc6C4=O)N3[C@@H](C#N)[C@H](C2)N1C)OCO5 [Compound 48] | – | – | – | – | – | – | – | – | IC50 [1, 13]: 30 ng/mL (≈ 49.3 nM); IC50 [2, 14]: 6 ng/mL (≈ 9.86 nM); IC50 [3, 15]: 2.5 ng/mL (≈ 4.11 nM); IC50 [4, 16]: 7.7 ng/mL (≈ 12.7 nM)
COC1=C(C)C(=O)C2=C(C1=O)[C@H](CN1C(=O)c3ccccc3C1=O)N1[C@@H](C#N)[C@@H]3Cc4cc(C)c(OC)c(O)c4[C@H]([C@@H]1C2)N3C | > 100 ng/mL | 24 ng/mL (≈ 39.4 nM) | 9 ng/mL (≈ 14.8 nM) | 22 ng/mL (≈ 36.1 nM) | – | – | – | – | –
COCOc1c(OC)c(C)cc2c1[C@@H]1[C@@H]3Cc4c(OC(C)=O)c(C)c5c(c4[C@H](CN4C(=O)c6ccccc6C4=O)N3[C@@H](C#N)[C@H](C2)N1C)OCO5 | 160 ng/mL (≈ 230 nM) | 51 ng/mL (≈ 73.4 nM) | 46 ng/mL (≈ 66.2 nM) | 68 ng/mL (≈ 97.9 nM) | – | – | – | – | –
COc1c(C)c(Cl)c2c(c1O)[C@@H]1[C@@H]3Cc4c(OC(C)=O)c(C)c5c(c4[C@H](CN4C(=O)c6ccccc6C4=O)N3[C@@H](C#N)[C@H](C2)N1C)OCO5 | 1.9 ng/mL (≈ 2.77 nM) | 0.7 ng/mL (≈ 1.02 nM) | 0.24 ng/mL (≈ 0.35 nM) | 0.73 ng/mL (≈ 1.07 nM) | – | – | – | – | –
CNC(=O)Oc1c(C)c2c(c3c1C[C@H]1[C@H]4c5c(cc(C)c(OC)c5O)C[C@@H]([C@H](C#N)N1[C@H]3CN1C(=O)c3ccccc3C1=O)N4C)OCO2 [Compound 66] | – | – | – | – | – | – | – | – | IC50 ([1]; A549, Table 7, additional analogs, read-out: IC50 Lung): 8.6 ng/mL (≈ 12.9 nM); IC50 ([2]; HCT-116, Table 7, additional analogs, read-out: IC50 Colon): 1.3 ng/mL (≈ 1.95 nM); IC50 ([3]; A-375, Table 7, additional analogs, read-out: IC50 Melanoma): 0.92 ng/mL (≈ 1.38 nM); IC50 ([4]; Table 7, additional analogs, read-out: IC50 Prostate): 2.1 ng/mL (≈ 3.15 nM)
COc1c(C)cc2c(c1O)[C@@H]1[C@@H]3Cc4c(O)c(C)c5c(c4[C@H](CNC(=O)Cc4ccc(OC(C)=O)cc4)N3[C@@H](C#N)[C@H](C2)N1C)OCO5 | > 100 ng/mL | > 100 ng/mL | > 100 ng/mL | > 100 ng/mL | – | – | – | – | –
COc1c(C)cc2c(c1O)[C@@H]1[C@@H]3Cc4c(OC(C)=O)c(C)c5c(c4[C@H](CN4C(=O)c6ccccc6C4=O)N3[C@@H](C#N)[C@H](C2)N1C)OCO5 | 0.67 ng/mL (≈ 1.03 nM) | 0.39 ng/mL (≈ 0.599 nM) | 0.13 ng/mL (≈ 0.2 nM) | 0.34 ng/mL (≈ 0.523 nM) | – | – | – | – | –
COc1c(C)cc2c(c1O)[C@@H]1[C@@H]3Cc4c(OC(C)=O)c(C)c5c(c4[C@H](CNC(=O)Cc4ccc(O)cc4)N3[C@@H](C#N)[C@H](C2)N1C)OCO5 [Compound 56] | – | – | – | – | > 100 ng/mL | 20 ng/mL (≈ 30.5 nM) | 6.5 ng/mL (≈ 9.93 nM) | 24 ng/mL (≈ 36.7 nM) | –
COc1c(C)cc2c(c1O)[C@@H]1[C@@H]3Cc4c(OC(C)=O)c(C)c5c(c4[C@H](CNC(=O)c4ccccc4)N3[C@@H](C#N)[C@H](C2)N1C)OCO5 [Compound 63] | – | – | – | – | – | – | – | – | IC50 ([1]; A549, read-out: IC50 Lung): 2 ng/mL (≈ 3.2 nM); IC50 ([2]; HCT-116, read-out: IC50 Colon): 0.37 ng/mL (≈ 0.592 nM); IC50 ([3]; A-375, read-out: IC50 Melanoma): 0.22 ng/mL (≈ 0.352 nM); IC50 ([4]; read-out: IC50 Prostate): 0.4 ng/mL (≈ 0.64 nM)
C=CCOc1c(C)c2c(c3c1C[C@H]1[C@H]4c5c(cc(C)c(OC)c5O)C[C@@H]([C@H](C#N)N1[C@H]3CN1C(=O)c3ccccc3C1=O)N4C)OCO2 [Compound 45] | – | – | – | – | – | – | – | – | IC50 [1, 13]: 5.2 ng/mL (≈ 8.02 nM); IC50 [2, 14]: 2.1 ng/mL (≈ 3.24 nM); IC50 [3, 15]: 0.98 ng/mL (≈ 1.51 nM); IC50 [4, 16]: 3.1 ng/mL (≈ 4.78 nM)
COc1c(C)cc2c(c1O)[C@@H]1[C@@H]3Cc4c(OC(C)=O)c(C)c5c(c4[C@H](CN4C(=O)c6ccccc6C4O)N3[C@@H](C#N)[C@H](C2)N1C)OCO5 (some centres unmarked) [Compound 28] | – | – | – | – | 22 ng/mL (≈ 33.7 nM) | 2.4 ng/mL (≈ 3.68 nM) | 0.79 ng/mL (≈ 1.21 nM) | 2.7 ng/mL (≈ 4.14 nM) | –
COc1c(C)cc2c(c1OC(C)=O)[C@@H]1[C@@H]3Cc4c(OC(C)=O)c(C)c5c(c4[C@H](CN4C(=O)c6ccccc6C4=O)N3[C@@H](C#N)[C@H](C2)N1C)OCO5 | 40 ng/mL (≈ 57.7 nM) | 20 ng/mL (≈ 28.9 nM) | 8.3 ng/mL (≈ 12 nM) | 17 ng/mL (≈ 24.5 nM) | – | – | – | – | –
COC1=C(C)C(=O)C2=C(C1=O)[C@@H]1[C@@H]3Cc4c(OC(C)=O)c(C)c5c(c4[C@H](CN4C(=O)c6ccccc6C4=O)N3[C@@H](C#N)[C@H](C2)N1C)OCO5 | 1.1 ng/mL (≈ 1.65 nM) | 0.53 ng/mL (≈ 0.797 nM) | 0.3 ng/mL (≈ 0.451 nM) | 0.45 ng/mL (≈ 0.677 nM) | – | – | – | – | –
COc1c(C)cc2c(c1O)[C@@H]1[C@@H]3Cc4c(OC(C)=O)c(C)c5c(c4[C@H](CN4C(=O)c6ccncc6C4=O)N3[C@@H](C#N)[C@H](C2)N1C)OCO5 [Compound 32] | – | – | – | – | 11 ng/mL (≈ 16.9 nM) | 2.1 ng/mL (≈ 3.22 nM) | 0.36 ng/mL (≈ 0.552 nM) | 37 ng/mL (≈ 56.8 nM) | –
COc1c(C)cc2c(c1O)[C@H]1N[C@@H](C2)[C@H](C#N)N2[C@@H](CN3C(=O)c4ccccc4C3=O)c3c(c(OC(C)=O)c(C)c4c3OCO4)C[C@@H]12 | 21 ng/mL (≈ 33 nM) | 3.5 ng/mL (≈ 5.5 nM) | 1.9 ng/mL (≈ 2.98 nM) | 3.3 ng/mL (≈ 5.18 nM) | – | – | – | – | –

Reference: USRE41614E1, “Synthetic analogs of ecteinascidin-743” (President and Fellows of Harvard College, priority 1998, dated 2010)
